Laboratory results taken from patent US11213525B2, “Linear glycosidase inhibitors” (Asceneuron SA, priority 2017, dated 2022).

biological target: His-Tagged hOGA (human O-GlcNAcase) (Homo sapiens (Human), UniProt O60502); experiment: Human O-GlcNAcase enzyme inhibition assay; assay type: biochemical; settings: 20 nM His-Tagged hOGA, 10 μM FL-GlcNAc, 60 min at room temperature, pH 6.5; activity classes defined in μM; read-out: Enzymatic OGA IC50
Method: Then, 20 nM of His-Tagged hOGA and 10 μM of FL-GlcNAc (Fluorescein mono-beta-D-(2-deoxy-2-N-acetyl) glucopyranoside; Marker Gene Technologies Inc, M1485) were added to the 384-well plate for a final volume of 20 μl.

His-Tagged hOGA (human O-GlcNAcase), sequence (O60502 whole entry): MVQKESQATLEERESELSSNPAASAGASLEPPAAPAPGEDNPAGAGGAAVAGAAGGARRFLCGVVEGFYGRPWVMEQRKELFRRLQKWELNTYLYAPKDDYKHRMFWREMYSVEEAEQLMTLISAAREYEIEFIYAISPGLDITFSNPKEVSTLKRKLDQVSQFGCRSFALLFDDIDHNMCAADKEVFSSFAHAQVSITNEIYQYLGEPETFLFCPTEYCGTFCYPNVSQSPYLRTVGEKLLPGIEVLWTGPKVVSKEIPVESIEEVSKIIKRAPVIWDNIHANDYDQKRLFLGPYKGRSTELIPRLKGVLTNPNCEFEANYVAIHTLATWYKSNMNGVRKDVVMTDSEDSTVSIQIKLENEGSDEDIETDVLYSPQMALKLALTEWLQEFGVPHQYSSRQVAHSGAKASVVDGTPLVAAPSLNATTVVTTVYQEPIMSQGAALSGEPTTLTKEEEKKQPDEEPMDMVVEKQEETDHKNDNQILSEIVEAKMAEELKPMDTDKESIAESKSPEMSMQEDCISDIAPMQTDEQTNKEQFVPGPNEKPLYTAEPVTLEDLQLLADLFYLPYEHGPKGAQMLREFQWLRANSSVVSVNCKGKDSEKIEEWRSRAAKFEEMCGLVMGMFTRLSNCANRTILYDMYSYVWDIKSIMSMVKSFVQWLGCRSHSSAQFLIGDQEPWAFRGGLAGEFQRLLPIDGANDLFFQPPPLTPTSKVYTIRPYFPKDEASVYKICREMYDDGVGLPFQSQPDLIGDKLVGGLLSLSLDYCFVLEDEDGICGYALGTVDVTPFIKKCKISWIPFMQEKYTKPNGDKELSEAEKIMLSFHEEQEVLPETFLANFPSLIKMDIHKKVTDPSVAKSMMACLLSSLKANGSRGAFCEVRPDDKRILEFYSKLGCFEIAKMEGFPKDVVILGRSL

`CC(c1ccc2c(c1)OCC2)N1CCN(C(=O)NC2CCOC2)CC1` (racemic) [Example 18, 4-(1-(2,3-dihydrobenzofuran-6-yl)ethyl)-N-(tetrahydrofuran-3-yl)piperazine-1-carboxamide] and `CC(c1ccc2c(c1)OCC2)N1CCC(Nc2cccnc2)CC1` (racemic) [Example 24, N-(1-(1-(2,3-dihydrobenzofuran-6-yl)ethyl)piperidin-4-yl)pyridin-3-amine] fall in the same range of IC50: 0.05 to 0.2 µM for the first, 0.05 to 0.2 µM for the second.

`CC(c1ccc2c(c1)OCO2)N1CCN(C(=O)Nc2ccccc2)CC1` (racemic) [Example 19, 4-(1-(benzo[d][1,3]dioxol-5-yl)ethyl)-N-phenylpiperazine-1-carboxamide] and `CC(c1ccc2c(c1)OCO2)N1CCN(C(=O)Nc2ccc(Cl)cc2)CC1` (racemic) [Example 20, 4-(1-(benzo[d][1, 3]dioxol-5-yl)ethyl)-N-(4-chlorophenyl)piperazine-1-carboxamide] fall in the same range of IC50: 0.2 to 1 µM for the first, 0.2 to 1 µM for the second.

`CC(c1ccc2c(c1)OCC2)N1CCC(C(=O)NCc2ccc(C#N)cc2)CC1` (racemic) [Example 21, N-(4-cyanobenzyl)-1-(1-(2,3-dihydrobenzofuran-6-yl)ethyl)piperidine-4-carboxamide] and `CC(c1ccc2c(c1)OCC2)N1CCC(C(=O)NCc2ccc(S(C)(=O)=O)cc2)CC1` (racemic) [Example 22, 1-(1-(2,3-dihydrobenzofuran-6-yl)ethyl)-N-(4-(methylsulfonyl)benzyl)piperidine-4-carboxamide] fall in the same range of IC50: 0.2 to 1 µM for the first, 0.2 to 1 µM for the second.

Compared with `CC(c1ccc2c(c1)OCC2)N1CCC(C(=O)NCc2ccc(C(F)(F)F)cc2)CC1` (racemic) [Example 23, 1-(1-(2,3-dihydrobenzofuran-6-yl)ethyl)-N-(4-(trifluoromethyl)benzyl)piperidine-4-carboxamide], `CC(c1ccc2c(c1)OCC2)N1CCC(NC(=O)Cc2ccc(C(F)(F)F)cc2)CC1` (racemic) [Example 27, N-(1-(1-(2,3-dihydrobenzofuran-6-yl)ethyl)piperidin-4-yl)-2-(4-(trifluoromethyl)phenyl)acetamide] is lower in IC50: 0.2 to 1 µM for the first, 0.05 to 0.2 µM for the second.

Compared with `CC(c1ccc2c(c1)OCC2)N1CCC(NC(=O)Cc2ccc(S(C)(=O)=O)cc2)CC1` (racemic) [Example 25, N-(1-(1-(2,3-dihydrobenzofuran-6-yl)ethyl)piperidin-4-yl)-2-(4-(methylsulfonyl)phenyl)acetamide], `CC(c1ccc2c(c1)OCC2)N1CCC(NC(=O)Cc2ccc(C#N)cc2)CC1` (racemic) [Example 26, 2-(4-cyanophenyl)-N-(1-(1-(2,3-dihydrobenzofuran-6-yl)ethyl)piperidin-4-yl)acetamide] is higher in IC50: under 0.05 µM for the first, 0.05 to 0.2 µM for the second.

`COc1cc(OC2CCN(C(C)c3ccc4c(c3)OCC4)CC2)ccn1` (racemic) [Example 29, 4-((1-(1-(2,3-dihydrobenzofuran-6-yl)ethyl)piperidin-4-yl)oxy)-2-methoxypyridine] and `CC(c1ccc2c(c1)OCC2)N1CCC(Oc2cccnc2)CC1` (racemic) [Example 32, 3-((1-(1-(2,3-dihydrobenzofuran-6-yl)ethyl)piperidin-4-yl)oxy)pyridine] cannot be ordered by IC50: under 0.05 µM for the first, under 0.05 µM for the second.

Compared with `CC(c1ccc2c(c1)OCC2)N1CCC(Oc2ccc(S(C)(=O)=O)cn2)CC1` (racemic) [Example 30, 2-((1-(1-(2,3-dihydrobenzofuran-6-yl)ethyl)piperidin-4-yl)oxy)-5-(methylsulfonyl)pyridine], `CC(c1ccc2c(c1)OCC2)N1CCC(Oc2ncc(S(C)(=O)=O)cn2)CC1` (racemic) [Example 36, 2-((1-(1-(2,3-dihydrobenzofuran-6-yl)ethyl)piperidin-4-yl)oxy)-5-(methylsulfonyl)pyrimidine] is higher in IC50: under 0.05 µM for the first, 0.05 to 0.2 µM for the second.

First: CC(c1ccc2c(c1)OCC2)N1CCC(Oc2ccc(C#N)cn2)CC1 (racemic) [Example 33, 6-((1-(1-(2,3-dihydrobenzofuran-6-yl)ethyl)piperidin-4-yl)oxy)nicotinonitrile]
Second: CC(c1ccc2c(c1)OCC2)N1CCC(Oc2cccnn2)CC1 (racemic) [Example 38, 3-((1-(1-(2,3-dihydrobenzofuran-6-yl)ethyl)piperidin-4-yl)oxy)pyridazine]
The IC50 of the first is lower: under 0.05 µM for the first, 0.2 to 1 µM for the second. The first is the more potent here.

First: CC(c1ccc2c(c1)OCC2)N1CCC(Oc2cncnc2)CC1 (racemic) [Example 34, 5-((1-(1-(2,3-dihydrobenzofuran-6-yl)ethyl)piperidin-4-yl)oxy)pyrimidine]
Second: CC(c1ccc2c(c1)OCC2)N1CCC(Oc2cccnc2)CC1 (single isomer, unassigned) [Example 28]
The IC50 of the first is higher: 0.05 to 0.2 µM for the first, under 0.05 µM for the second.

First: CC(c1ccc2c(c1)OCC2)N1CCC(OCc2cccnc2)CC1 (racemic) [Example 35, 3-(((1-(1-(2,3-dihydrobenzofuran-6-yl)ethyl)piperidin-4-yl)oxy)methyl)pyridine]
Second: CC(c1ccc2c(c1)OCC2)N1CCC(Oc2cccnc2)CC1 (single isomer, unassigned) [Example 39]
The IC50 of the first is lower: 0.05 to 0.2 µM for the first, 1 to 10 µM for the second.

First: CC(c1ccc2c(c1)OCC2)N1CCC(Oc2ncccn2)CC1 (racemic) [Example 37, 2-((1-(1-(2,3-dihydrobenzofuran-6-yl)ethyl)piperidin-4-yl)oxy)pyrimidine]
Second: CC(c1ccc2scnc2c1)N1CCC(Oc2cccnc2)CC1 (single isomer, unassigned) [Example 31, (S)-5-(1-(4-(pyridin-3-yloxy)piperidin-1-yl)ethyl)benzo[d]thiazole or (R)-5-(1-(4-(pyridin-3-yloxy)piperidin-1-yl)ethyl)benzo[d]thiazole]
The IC50 of the first is higher: 0.2 to 1 µM for the first, under 0.05 µM for the second. The second is the more potent here.
